Our source for the Cell proliferation values is patent US20250222120A1, “SYNTHESIS OF NOVEL SMALL MOLECULE CARM1 DEGRADERS, COMPOUNDS FORMED THEREBY, AND PHARMACEUTICAL COMPOSITIONS CONTAINING THEM” (Wisconsin Alumni Research Foundation, priority 2024, published 2025).

The assay has as its system MCF10A cells. As to the kind of experiment: Cell proliferation assay, MCF10A cells. In kind it is cell-based, human. The conditions noted are these: 0.5 μM.

With `CNCCN1CCC(c2cc(CN(C)C(=O)c3cccc(Oc4ccc(OCC(=O)N5CCC(CN6CCC(CN7CCN(CC(=O)N[C@H](C(=O)N8C[C@H](O)C[C@H]8C(=O)N[C@@H](C)c8ccc(-c9scnc9C)cc8)C(C)(C)C)CC7)CC6)CC5)cc4)c3)ccn2)CC1` [Compound 3b, (2S,4R)-1-((S)-3,3-dimethyl-2-(2-(4-((1-((1-(2-(4-(3-(methyl((2-(1-(2-(methylamino)ethyl)piperidin-4-yl)pyridin-4-yl)methyl)carbamoyl)phenoxy)phenoxy)acetyl)piperidin-4-yl)methyl)piperidin-4-yl)methyl)piperazin-1-yl)acetamido)butanoyl)-4-hydroxy-N—((S)-1-(4-(4-methylthiazol-5-yl)phenyl)ethyl)pyrrolidine-2-carboxamide], the Cell proliferation entry is “not to inhibit cell proliferation”.
